≈ marks a conversion by molar mass, not a printed value. Where “and” joins values, the source holds several entries; their conditions need not be identical. Identical values can stand only once. Like-named read-outs stand apart in the source and are kept apart here.
Key:
[1] = Pharmacokinetic evaluation in dogs (IV, PO); type: in vivo, beagle dogs; conditions: dog plasma
Description: (§1) Experimental Purpose: To evaluate the druggability of the compounds by measuring its pharmacokinetic properties in different animal species.
(§2) Experimental materials: CD-1 mice, Sprague-Dawley strain rats, beagle dogs, and crab-eating macaques.
(§3) Drug preparation: An appropriate amount of sample was weighed and then prepared into a clear or suspended solution.
(§4) Experimental procedure: The animal pharmacokinetic characteristics after intravenous injection and oral administration of the compound were tested using a standard protocol. The candidate compound was prepared as a clear solution (for intravenous injection) or a homogeneous suspension (for oral administration) during the experiment and administered to the animals as a single dose. Whole blood samples were collected at 0.083, 0.25, 0.5, 1, 2, 4, 8, and 24 hours, centrifuged at 3200 g for 10 minutes to separate the supernatant to obtain plasma samples. The plasma concentration was quantitatively analyzed by LC-MS/MS analysis method and pharmacokinetic parameters were calculated, such as peak concentration, peak time, clearance rate, half-life, area under the drug-time curve, etc.

[2] = Pharmacokinetic evaluation in rats (IV, PO); type: in vivo, Sprague-Dawley strain rats; conditions: rat plasma
Description: as §1, §2, §3, §4

[3] = in vivo; parameters: species or system crab-eating macaques
Description: as §1, §2, §3, §4

[4] = system: Cryptococcus neoformans H99 ATCC 208821; assay: Minimum inhibitory concentration (MIC) test against fungi; type: cell-based; conditions: ≥50% growth inhibition by eye, three independent experiments
Experimental: (§5) To test the minimum inhibitory concentration (MIC) and minimum effective concentration (MEC) of the drug against fungi.
Cryptococcus neoformans H99 ATCC 208821;
(§6) Test medium: RPMI1640 (containing 0.165 M MOPS, pH7.0)
(§7) On the day of the experiment, the compound in the bottle was dissolved in 100% DMSO to a stock solution concentration of 6.24 mg/mL. Then, the mixture was 10-fold diluted with DMSO to 0.624 mg/mL for use.
(§8) A 2-fold gradient dilution of the compound solution (0.624 mg/mL) was performed using DMSO on a 96-microwell plate (V-bottom) to obtain 100× working solutions (wells 1 to 11). 624, 312, 156, 78, 39, 20, 10, 5, 2.5, 1.25, 0.625 μg/mL. 100% DMSO was used as a positive control (well 12). This was the compound stock plate.
Cryptococcus neoformans H99 ATCC 208821 frozen at −80° C. was streaked on SDA plates and incubated aerobically in a 35±2° C. incubator for 48 hours.
(§9) On the day of the experiment, for strains Candida parapsilosis ATCC 22019, Candida albicans ATCC MYA-2876; Candida albicans WX-CA009; Candida glabrata ATCC15126; Candida tropicalis ATCC 750 and Cryptococcus neoformans H99 ATCC 208821, the plates were taken out and the clones on the plates were picked, suspended in normal saline, and then the turbidity of the fungal suspension was adjusted to OD600=0.2 using a turbidimeter. The fungal suspension contained about 3.0×10^6 CFU/mL. Then the turbidity-adjusted fungal suspension was diluted with a test medium to a concentration of about 3.0×10^3 CFU/mL. This was the inoculum.
(§10) 2 μL of 100× working solution from the compound stock plate (prepared in 3.1) was transferred to a round-bottomed 96-well plate (containing 98 μL of test medium), and then 100 μL of fungus inoculum (prepared in 3.2) was added to each well to obtain a MIC test plate. Therefore, the final test concentrations of the compounds were 6.24, 3.12, 1.56, 0.78, 0.39, 0.20, 0.10, 0.05, 0.025, 0.0125, 0.006 μg/mL. 1% DMSO was used as a growth control.
For Cryptococcus neoformans H99 ATCC 208821, all test plates were incubated aerobically in a 35±2° C. incubator for 72 hours.
(§11) After incubation, according to the criteria in Table 1 below, the test plate was observed by eye or microscope to determine the MIC (g/mL) and MEC (g/mL) of the test compound against yeast and mold.

[5] = system: Aspergillus fumigatus ATCC-MYA-4609; assay: Minimum effective concentration (MEC) test against fungi; type: cell-based; conditions: change of hyphae morphology by microscope, 48 hours, three independent experiments
Experimental: as §5
(§12) Aspergillus fumigatus ATCC-MYA-4609; Aspergillus flavus ATCC MYA-1004
as §6, §7, §8
(§13) Aspergillus fumigatus ATCC-MYA-4609; Aspergillus flavus ATCC MYA-1004 frozen at −80° C. were streaked on SDA plates and incubated aerobically in a 30±2° C. incubator for 6 days.
(§14) For strains Aspergillus fumigatus ATCC MYA-4609; Aspergillus flavus ATCC MYA-1004, after taking out the plate, 3 mL of 0.9% normal saline containing 0.1% Tween20 was added to the plate and the spores were gently collected. The spores were counted with a hemocytometer and the spore suspension was adjusted to about 5×10^6 spores/mL. Then the spore suspension was diluted to 0.8 to 1×10^5 spores/mL with a test medium.
as §10
(§15) For mold strains Aspergillus fumigatus ATCC-MYA-4609 and Aspergillus flavus ATCC MYA-1004, all test plates were incubated aerobically in a 35±° C. incubator for 48 hours.
as §11

[6] = system: Aspergillus flavus ATCC MYA-1004; assay: as above; type: cell-based; conditions: change of hyphae morphology by microscope, 48 hours, three independent experiments
Experimental: as §5, §12, §6, §7, §8, §13, §14, §10, §15, §11

[7] = system: Candida albicans WX-CA009; assay: Minimum inhibitory concentration (MIC) test against fungi; type: cell-based; conditions: ≥50% growth inhibition by eye, three independent experiments
Experimental: as §5
(§16) Experimental strains: Candida parapsilosis ATCC 22019; Candida albicans ATCC MYA-2876; Candida albicans WX-CA009; Candida glabrata ATCC15126; Candida tropicalis ATCC 750;
as §6, §7, §8
(§17) Candida parapsilosis ATCC 22019 and Candida albicans ATCC MYA-2876; Candida albicans WX-CA009; Candida glabrata ATCC15126; Candida tropicalis ATCC 750 frozen at −80° C. were streaked on SDA plates and incubated aerobically in a 35±2° C. incubator for 24 hours.
as §9, §10
(§18) For strains Candida parapsilosis ATCC 22019; Candida albicans ATCC MYA-2876; Candida albicans WX-CA009; Candida glabrata ATCC15126; Candida tropicalis ATCC 750, all test plates were incubated aerobically in a 35±2° C. incubator for 24 hours.
as §11

[8] = system: Candida glabrata ATCC15126; assay: as above; type: cell-based; conditions: Nakaseomyces glabratus, ATCC15126, 24 h, ≥50% growth inhibition by eye, three independent experiments, read-out: MIC
Experimental: as §5, §16, §6, §7, §8, §17, §9, §10, §18, §11

[9] = system: Candida albicans ATCC MYA-2876; assay: as above; type: cell-based; conditions: ≥50% growth inhibition by eye, three independent experiments
Experimental: as §5, §16, §6, §7, §8, §17, §9, §10, §18, §11

[10] = system: Candida parapsilosis ATCC 22019; assay: as above; type: cell-based; conditions: ≥50% growth inhibition by eye, three independent experiments (1st, 2nd, 3rd time)
Experimental: as §5, §16, §6, §7, §8, §17, §9, §10, §18, §11

[11] = Mouse pharmacokinetic evaluation, intraperitoneal injection after oral ABT; type: in vivo; conditions: ip, female CD-1 mice, 6 mpk, ABT 50 mg/kg orally 2 hours before, plasma
Description: Experimental Purpose: Using female CD-1 mice as test animals, LC/MS/MS was used to measure the plasma drug concentration at different times after intraperitoneal injection of the test compound. To study the pharmacokinetic behavior of the test compound in mice and evaluate its pharmacokinetic characteristics. Drug preparation: An appropriate amount of sample was weighed and then prepared into a clear or suspended solution. Administration scheme: Two healthy female CD-1 mice were taken, purchased from Beijing Vital River Laboratory Animal Technology Co., Ltd., and given a normal diet. The drug was administered through intraperitoneal injection. Operational steps: 2 hours before administration, 1-aminobenzotriazole (ABT) was orally administered (50 mg/kg, 5 mg/mL in normal saline), and after animal administration, about 30 μL of blood was collected at 0.083, 0.25, 0.5, 1, 2, 4, 8, and 24 hours, and placed in commercially available anticoagulant tubes pre-added with EDTA-K2. The tubes were centrifuged for 10 minutes to separate the plasma, and the plasma was stored at −60° C. The content of the target compound in the plasma sample was determined by LC/MS/MS method, and the experimental results are shown in Table 3.

[12] = system: Candida tropicalis ATCC 750; assay: Minimum inhibitory concentration (MIC) test against fungi; type: cell-based; conditions: Candida tropicalis, ATCC750, 24 h, ≥50% growth inhibition by eye, three independent experiments, read-out: MIC
Experimental: as §5, §16, §6, §7, §8, §17, §9, §10, §18, §11

[13] = Cryptococcus neoformans, ATCC208821, 72 h, read-out: MIC
[14] = Candida albicans, WXCA009, 24 h, read-out: MIC
[15] = Candida albicans, 24 h, read-out: MIC
[16] = Lodderomyces parapsilosis, ATCC22019, 24 h, read-out: MIC

Compound | time to complete decomposition into the parent drug WX004 [1] | time to complete decomposition into the parent drug WX004 [2] | time to complete decomposition into the parent drug WX004 ([3]; crab-eating macaque, crab-eating macaque (monkey)) | F % ([3]; monkey, po, 13.5 mg/kg) | MIC [4, 13] | MIC ([4]; 72 hours) | MEC [5] | MEC [6] | MIC [7, 14] | MIC ([7]; 24 hours) | MIC [8] | MIC [9, 15] | MIC ([9]; 24 hours) | MIC [10, 16] | MIC ([10]; 24 hours) | AUC ([11]; read-out: Concentration Integral AUC) | Cmax ([11]; read-out: Peak Concentration Cmax) | Tmax ([11]; read-out: Peak Time Tmax) | MIC [12]
Nc1ccc(C#CCc2ccc(COc3ccccn3)cc2)c[n+]1COP(=O)(O)O [WX013] | ≤ 0.5 h | ≤ 0.5 h | ≤ 0.5 h | 89% |  |  |  |  |  |  |  |  |  |  |  |  |  |  | 
Nc1ccc(C#CCc2ccc(COc3ccccn3)cc2)c(F)n1 [WX005] |  |  |  |  | > 6.24 µg/mL | 6.24 µg/mL (≈ 18.7 µM) | 0.39 µg/mL and 0.2 µg/mL | 3.12 µg/mL | 0.1 µg/mL (≈ 0.3 µM) | 0.05 µg/mL (≈ 0.15 µM) | 1.56 µg/mL (≈ 4.68 µM) | 0.05 µg/mL (≈ 0.15 µM) | 0.1 µg/mL (≈ 0.3 µM) | 0.2 µg/mL (≈ 0.6 µM) | 0.1 µg/mL (≈ 0.3 µM) |  |  |  | 
Nc1ncc(C#CCc2ccc(COc3ccccn3)cc2)cc1F [WX008] |  |  |  |  | 3.12 µg/mL (≈ 9.36 µM) |  | 1.56 µg/mL | 0.39 µg/mL | 0.05 µg/mL (≈ 0.15 µM) |  | 0.78 µg/mL (≈ 2.34 µM) | 0.05 µg/mL (≈ 0.15 µM) |  | 0.05 µg/mL (≈ 0.15 µM) |  | 75 µM·h | 4.7 µM | 4.3 h | 0.05 µg/mL (≈ 0.15 µM)
